Measurements reported in paper PMC5582255, “Partial Purification and Characterization of the Recombinant Benzaldehyde Dehydrogenase from Rhodococcus ruber UKMP-5M” (Iranian Journal of Biotechnology, 2017).

Test system: T1, BZDH (benzaldehyde dehydrogenase, xylC)
T1 construct: xylC ORF of 792 bp, 264 aa, ~27 kDa, homologous to the C-terminal half of other aldehyde dehydrogenases; DEAE ion exchange; forward primer […]; (encodes MSPSPVPPR), reverse primer […]; (C-terminus ...DVPGYPF)
Assay: NADH formation at […] nm, Lineweaver-Burk
Assay type: biochemical, Rhodococcus ruber
Settings: co-substrate NAD (standard assay 5 mM, 50 mM glycine-NaOH); 25 °C; benzaldehyde 0.005-4 mM; pH of kinetic run not stated

O=Cc1ccccc1 [benzaldehyde]
Km: 4.2 mM
